For one data set, the system named is D4 receptors. Kind of data set: Assay for D2 and D4 receptor binding activity (COS cells, 3H-YM 09151-2), D4. To be noted: recombinant D4 in COS cells; 0.5 nM 3H-YM 09151-2; read-out: D4 K1. Further details: species or system African Green monkey. The method, then: (§1) Assay For D2 And D4 Receptor Binding Activity
(§2) Pellets of COS cells containing recombinantly produced D2 or D4 receptors from African Green monkey were used for the assays. The sample is homogenized in 100 volumes (w/vol) of 0.05 M Tris HCl buffer at 4° C. and pH 7.4. The sample is then centrifuged at 30,000×g and resuspended and rehomogenized. The sample is then centrifuged as described and the final tissue sample is frozen until use. The tissue is resuspended 1:20 (wt/vol) in 0.05 M Tris HCl buffer containing 100 mM NaCl.
(§3) Incubations are carried out at 48° C. and contain 0.4 ml of tissue sample, 0.5 nM ^3H-YM 09151-2 and the compound of interest in a total incubation of 1.0 ml. Non-specific binding is defined as that binding found in the presence of […] spiperone; without further additions, nonspecific binding is less than 20% of total binding.

The target of the next data set is T1, D2 receptors (Chlorocebus aethiops, UniProt P52702).
T1 construct: expressed in transfected cells; host or cells: COS cells
Kind of data set: Assay for D2 and D4 receptor binding activity (COS cells, 3H-YM 09151-2), D2. Conditions: recombinant D2 in COS cells; 0.5 nM 3H-YM 09151-2. Also noted: species or system African Green monkey. The method, then: as §1, §2, §3

One may read the melting point as the temperature of the solid-liquid transition.

T1 sequence (P52702 whole entry): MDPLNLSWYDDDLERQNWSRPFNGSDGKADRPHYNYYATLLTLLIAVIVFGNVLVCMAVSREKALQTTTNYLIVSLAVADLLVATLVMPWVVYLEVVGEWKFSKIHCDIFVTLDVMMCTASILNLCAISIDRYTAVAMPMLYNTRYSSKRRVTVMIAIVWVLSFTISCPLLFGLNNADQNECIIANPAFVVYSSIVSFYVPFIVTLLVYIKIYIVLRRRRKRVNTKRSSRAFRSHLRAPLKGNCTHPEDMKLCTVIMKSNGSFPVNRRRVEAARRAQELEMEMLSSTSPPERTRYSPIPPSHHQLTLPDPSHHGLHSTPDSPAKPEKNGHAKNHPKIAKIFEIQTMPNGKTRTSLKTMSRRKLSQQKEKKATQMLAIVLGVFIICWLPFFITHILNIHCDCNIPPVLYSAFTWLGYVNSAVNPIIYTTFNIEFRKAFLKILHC

Turning to “1-(1-[2-{(4-[5-Fluoropyrimidin-2-yl])piperazin-1-yl}]ethyl)aminoisoquinoline hydrobromide [Compound 9]”, the Ki was determined as 0.013 µM in the data set on D4 receptors and 1.5 µM on D2 receptors.

“1-(1-[3-{(4-Pyridin-2-yl)piperazin-1-yl}]propyl)aminoisoquinoline hydrobromide [Compound 10]”: the Ki in the data set on D4 receptors was 0.002 µM; at D2 receptors, 0.773 µM.

Molecule `CN(CCCc1ccccc1)CCNC1=NCc2ccccc21` [Compound 3, 1-(N-[2-{N′-(3-phenylpropyl)-N′-methyl}aminoethyl])aminoisoindole dioxolate] showed a melting point of 175 to 177 °C.

For the origin of these results see US6441175B1, “1-(N'-arylalkylaminoalkyl)aminoisoquinolines: a new class of dopamine receptor subtype” (Neurogen Corporation, priority 1997, dated 2002).
